Test results reported in patent US20230265151A1, “GIP/GLP1 CO-AGONIST COMPOUNDS” (priority 2020, published 2023).
Read-outs that look alike come from different tables or passages of the source.

How the values were obtained:
[1] = biological target: T1, human Gcg receptor (hGcgR) (Homo sapiens, UniProt P47871); experiment: [125I]-Glucagon binding, SPA with membranes of HEK293 cells expressing hGcgR; settings: human GcgR; geometric mean (SEM, n); read-out: Binding Affinity Ki, nM (SEM, n) hGCGR
T1 construct: expressed in transfected cells; crude membranes

hGIPR = biological target: T2, hGIPR (Homo sapiens, UniProt P48546); experiment: Functional cAMP formation (HTRF) in HEK-293 clonal cells expressing hGIPR, 0.1% bovine casein, without or with 1.0% human serum albumin; assay type: cell-based; settings: for EC50: geometric mean, read-out: hGIPR EC50, nM (SEM, n); for Emax: read-out: hGIPR Emax, % ± SEM
T2 construct: expressed in transfected cells
T2 sequence (P48546 22-466): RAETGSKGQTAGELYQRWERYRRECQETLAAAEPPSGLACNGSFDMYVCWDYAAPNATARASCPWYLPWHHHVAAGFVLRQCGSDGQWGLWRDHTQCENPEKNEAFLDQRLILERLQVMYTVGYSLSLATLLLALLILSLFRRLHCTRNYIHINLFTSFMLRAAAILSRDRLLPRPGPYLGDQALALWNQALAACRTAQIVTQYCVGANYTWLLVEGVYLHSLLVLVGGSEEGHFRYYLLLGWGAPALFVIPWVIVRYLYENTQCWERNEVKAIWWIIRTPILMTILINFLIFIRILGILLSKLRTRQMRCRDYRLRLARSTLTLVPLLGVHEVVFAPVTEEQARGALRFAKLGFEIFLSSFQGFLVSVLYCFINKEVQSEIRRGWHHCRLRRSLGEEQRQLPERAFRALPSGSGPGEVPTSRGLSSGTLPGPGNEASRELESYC
Summary of the method: (§1)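 Cells were stimulated with peptide for 30 min at 37° C, then lysed in buffer carrying cAMP-d2 and anti-cAMP Eu3+-cryptate for a competitive HTRF read after at least 60 min at room temperature. The 665/620 nm ratio was converted to nM cAMP against a standard curve.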

hGCGR = biological target: T3, hGCGR (Homo sapiens, UniProt P47871); experiment: Functional cAMP formation (HTRF) in HEK-293 clonal cells expressing hGCGR, 0.1% bovine casein, without or with 1.0% human serum albumin; assay type: cell-based; settings: geometric mean, read-out: hGCGR EC50, nM (SEM, n)
T3 construct: expressed in transfected cells
Summary of the method: as §1

hGLP-1R = hGLP-1R (Homo sapiens, UniProt P43220); experiment: Functional cAMP formation (HTRF) in HEK-293 clonal cells expressing hGLP-1R, 0.1% bovine casein, without or with 1.0% human serum albumin; assay type: cell-based; set-up: expressed in transfected cells; settings: for EC50: geometric mean, read-out: hGLP-1R EC50, nM (SEM, n); for Emax: read-out: hGLP-1R Emax, % ± SEM
Summary of the method: as §1

[2] = 0.1% bovine casein and 1.0% human serum albumin, 37° C.
[3] = cAMP, incubated at 37° C., 0.1% bovine casein (no human serum albumin)
[4] = HEK293, 0.1% bovine casein and 1.0% human serum albumin, 37° C., percent of maximal response to GLP-1(7-36)NH2
[5] = HEK293, 0.1% bovine casein and 1.0% human serum albumin, 37° C., percent of maximal response to GIP(1-42)NH2
[6] = HEK293, percent of maximal response to GIP(1-42)NH2, 37° C., 0.1% bovine casein, arithmetic mean
[7] = HEK293, percent of maximal response to GLP-1(7-36)NH2, 37° C., 0.1% bovine casein, arithmetic mean

T1 sequence (P47871 26-477): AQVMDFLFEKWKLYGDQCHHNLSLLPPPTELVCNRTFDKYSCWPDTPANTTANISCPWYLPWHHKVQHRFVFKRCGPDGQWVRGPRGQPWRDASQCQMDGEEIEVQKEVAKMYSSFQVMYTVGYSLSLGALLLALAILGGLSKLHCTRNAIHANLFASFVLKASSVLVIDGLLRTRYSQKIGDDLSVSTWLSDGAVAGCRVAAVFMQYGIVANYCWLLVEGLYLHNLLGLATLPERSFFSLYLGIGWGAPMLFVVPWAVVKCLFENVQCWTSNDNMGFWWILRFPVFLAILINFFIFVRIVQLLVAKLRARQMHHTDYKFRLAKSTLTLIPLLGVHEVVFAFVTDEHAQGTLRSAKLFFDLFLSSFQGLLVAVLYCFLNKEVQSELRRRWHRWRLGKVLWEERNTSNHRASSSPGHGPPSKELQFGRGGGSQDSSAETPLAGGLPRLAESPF
T3 sequence (P47871 26-477): as above
Chain of hGLP-1R (P43220 24-463): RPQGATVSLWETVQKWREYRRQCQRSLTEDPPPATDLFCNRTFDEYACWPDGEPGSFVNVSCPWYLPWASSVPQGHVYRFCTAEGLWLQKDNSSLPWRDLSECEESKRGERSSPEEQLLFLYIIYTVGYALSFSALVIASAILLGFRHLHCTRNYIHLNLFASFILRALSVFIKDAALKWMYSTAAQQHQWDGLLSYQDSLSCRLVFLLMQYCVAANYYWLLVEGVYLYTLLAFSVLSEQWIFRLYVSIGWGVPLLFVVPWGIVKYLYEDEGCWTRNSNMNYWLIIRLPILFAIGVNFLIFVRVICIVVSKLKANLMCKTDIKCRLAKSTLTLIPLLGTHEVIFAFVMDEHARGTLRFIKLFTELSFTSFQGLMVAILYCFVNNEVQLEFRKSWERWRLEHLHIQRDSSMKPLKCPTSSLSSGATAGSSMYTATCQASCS

Q: With `CC[C@H](C)[C@H](NC(=O)[C@H](CC(C)C)NC(=O)[C@](C)(Cc1ccc(O)cc1)NC(=O)[C@@H](CCC(=O)O)NC(=O)[C@@H](NC(=O)[C@H](Cc1ccccc1)NC(=O)[C@H](CCC(=O)O)NC(=O)C(C)(C)NC(=O)[C@H](CCC(N)=O)NC(=O)[C@H](C)NC(=O)[C@H](CCCCNC(=O)COCCOCCNC(=O)CC[C@H](NC(=O)COCCOCCNC(=O)CCCCCCCCCCCCC(=O)O)C(=O)O)NC(=O)[C@H](CCCN)NC(=O)[C@H](CC(=O)O)NC(=O)[C@H](CC(C)C)NC(=O)[C@](C)(CC(C)C)NC(=O)[C@@H](NC(=O)[C@H](CO)NC(=O)[C@H](Cc1ccncc1)NC(=O)[C@H](CC(=O)O)NC(=O)[C@H](CO)NC(=O)[C@@H](NC(=O)[C@](C)(Cc1ccccc1F)NC(=O)[C@@H](NC(=O)CNC(=O)[C@H](CCC(=O)O)NC(=O)C(C)(C)NC(=O)[C@@H](N)Cc1ccc(O)cc1)[C@@H](C)O)[C@@H](C)O)[C@@H](C)CC)[C@@H](C)CC)C(=O)N[C@@H](CCC(=O)O)C(=O)NCC(=O)NCC(=O)N[C@@H](CCCCNC(=O)COCCOCCNC(=O)CC[C@H](NC(=O)COCCOCCNC(=O)CCCCCCCCCCCCC(=O)O)C(=O)O)C(=O)N[C@@H](CO)C(=O)N[C@@H](CO)C(=O)NCC(=O)N[C@@H](C)C(=O)N1CCC[C@H]1C(=O)N1CCC[C@H]1C(=O)N1CCC[C@H]1C(=O)N[C@@H](CO)C(N)=O` [Example 43] as the compound, how does the Ki [1] read?
A: > 957 nM

Q: What about the EC50 (hGIPR; [2]) of the same compound?
A: 0.375 nM

Q: What about the EC50 (hGIPR; [3]) of the same compound?
A: 0.0123 nM

Q: What about the EC50 (hGCGR; [2]) of the same compound?
A: > 9950 nM

Q: And the EC50 (hGCGR; [3])?
A: > 9950 nM

Q: And the EC50 (hGLP-1R; [2])?
A: 35.6 nM

Q: And the Emax (hGLP-1R; [4])?
A: 98.7%

Q: For `CC[C@H](C)[C@H](NC(=O)[C@H](CCCN)NC(=O)[C@H](CC(=O)O)NC(=O)[C@H](CC(C)C)NC(=O)[C@](C)(CC(C)C)NC(=O)[C@@H](NC(=O)[C@H](CO)NC(=O)[C@H](Cc1ccncc1)NC(=O)[C@H](CC(=O)O)NC(=O)[C@H](CO)NC(=O)[C@@H](NC(=O)[C@](C)(Cc1ccccc1F)NC(=O)[C@@H](NC(=O)CNC(=O)[C@H](CCC(=O)O)NC(=O)C(C)(C)NC(=O)[C@@H](N)Cc1ccc(O)cc1)[C@@H](C)O)[C@@H](C)O)[C@@H](C)CC)C(=O)N[C@@H](C)C(=O)N[C@@H](CCC(N)=O)C(=O)NC(C)(C)C(=O)N[C@@H](CCC(=O)O)C(=O)N[C@@H](Cc1ccccc1)C(=O)N[C@H](C(=O)N[C@@H](CCCCNC(=O)COCCOCCNC(=O)COCCOCCNC(=O)CC[C@H](NC(=O)CCCCCCCCCCCCC(=O)O)C(=O)O)C(=O)N[C@@](C)(Cc1ccc(O)cc1)C(=O)N[C@@H](CC(C)C)C(=O)N[C@H](C(=O)N[C@@H](CCCCNC(=O)COCCOCCNC(=O)COCCOCCNC(=O)CC[C@H](NC(=O)CCCCCCCCCCCCC(=O)O)C(=O)O)C(=O)NCC(=O)NCC(=O)N1CCC[C@H]1C(=O)N[C@@H](CO)C(=O)N[C@@H](CO)C(=O)NCC(=O)N[C@@H](C)C(=O)N1CCC[C@H]1C(=O)N1CCC[C@H]1C(=O)N1CCC[C@H]1C(=O)N[C@@H](CO)C(N)=O)[C@@H](C)CC)[C@@H](C)CC` [Example 70], which Ki [1] is on record?
A: 151 nM

Q: And the Emax (hGIPR; [5])?
A: 89.9 ± 0.987%

Q: And the Emax (hGIPR; [6])?
A: 89.1 ± 2.3%

Q: And the EC50 (hGIPR; [3])?
A: 0.0182 nM

Q: What about the EC50 (hGCGR; [2]) of the same compound?
A: > 9950 nM

Q: And the EC50 (hGCGR; [3])?
A: > 9950 nM

Q: And the EC50 (hGLP-1R; [2])?
A: 27 nM

Q: And the Emax (hGLP-1R; [7])?
A: 100 ± 3.11%

Q: `CC[C@H](C)[C@H](NC(=O)[C@H](CC(C)C)NC(=O)[C@](C)(Cc1ccc(O)cc1)NC(=O)[C@@H](CCC(=O)O)NC(=O)[C@@H](NC(=O)[C@H](Cc1ccccc1)NC(=O)[C@H](CCC(=O)O)NC(=O)C(C)(C)NC(=O)[C@H](CCC(N)=O)NC(=O)[C@H](C)NC(=O)[C@H](CCCCNC(=O)COCCOCCNC(=O)COCCOCCNC(=O)CC[C@H](NC(=O)CCCCCCCCCCCCC(=O)O)C(=O)O)NC(=O)[C@H](CCCN)NC(=O)[C@H](CC(=O)O)NC(=O)[C@H](CC(C)C)NC(=O)[C@](C)(CC(C)C)NC(=O)[C@H](CCCCNC(=O)COCCOCCNC(=O)COCCOCCNC(=O)CC[C@H](NC(=O)CCCCCCCCCCCCC(=O)O)C(=O)O)NC(=O)[C@H](CO)NC(=O)[C@H](Cc1ccncc1)NC(=O)[C@H](CC(=O)O)NC(=O)[C@H](CO)NC(=O)[C@@H](NC(=O)[C@](C)(Cc1ccccc1F)NC(=O)[C@@H](NC(=O)CNC(=O)[C@H](CCC(=O)O)NC(=O)C(C)(C)NC(=O)[C@@H](N)Cc1ccc(O)cc1)[C@@H](C)O)[C@@H](C)O)[C@@H](C)CC)C(=O)N[C@@H](CCC(=O)O)C(=O)NCC(=O)NCC(=O)N1CCC[C@H]1C(=O)N[C@@H](CO)C(=O)N[C@@H](CO)C(=O)NCC(=O)N[C@@H](C)C(=O)N1CCC[C@H]1C(=O)N1CCC[C@H]1C(=O)N1CCC[C@H]1C(=O)N[C@@H](CO)C(N)=O` [Example 28] was tested. Which Ki [1] did it give?
A: > 966 nM

Q: What about the EC50 (hGIPR; [2]) of the same compound?
A: 2.08 nM

Q: What about the Emax (hGIPR; [5]) of the same compound?
A: 93 ± 7.02%

Q: What about the Emax (hGIPR; [6]) of the same compound?
A: 95.4 ± 1.58%

Q: What about the EC50 (hGCGR; [2]) of the same compound?
A: > 9950 nM

Q: And the EC50 (hGCGR; [3])?
A: > 9950 nM

Q: And the EC50 (hGLP-1R; [3])?
A: 2.65 nM

Q: Which results are given for `CC[C@H](C)[C@H](NC(=O)[C@H](CC(C)C)NC(=O)[C@](C)(Cc1ccc(O)cc1)NC(=O)[C@@H](CCC(=O)O)NC(=O)[C@@H](NC(=O)[C@H](Cc1ccccc1)NC(=O)[C@H](CCC(=O)O)NC(=O)C(C)(C)NC(=O)[C@H](CCC(N)=O)NC(=O)[C@H](C)NC(=O)[C@H](CCCCNC(=O)COCCOCCNC(=O)COCCOCCNC(=O)CC[C@H](NC(=O)CCCCCCCCCCCCC(=O)O)C(=O)O)NC(=O)[C@H](CCCN)NC(=O)[C@H](CC(=O)O)NC(=O)[C@H](CC(C)C)NC(=O)[C@](C)(CC(C)C)NC(=O)[C@@H](NC(=O)[C@H](CO)NC(=O)[C@H](Cc1ccncc1)NC(=O)[C@H](CC(=O)O)NC(=O)[C@H](CO)NC(=O)[C@@H](NC(=O)[C@](C)(Cc1ccccc1)NC(=O)[C@@H](NC(=O)CNC(=O)[C@H](CCC(=O)O)NC(=O)C(C)(C)NC(=O)[C@@H](N)Cc1ccc(O)cc1)[C@@H](C)O)[C@@H](C)O)[C@@H](C)CC)[C@@H](C)CC)C(=O)N[C@@H](CCC(=O)O)C(=O)NCC(=O)NCC(=O)N[C@@H](CCCCNC(=O)COCCOCCNC(=O)COCCOCCNC(=O)CC[C@H](NC(=O)CCCCCCCCCCCCC(=O)O)C(=O)O)C(=O)N[C@@H](CO)C(=O)N[C@@H](CO)C(=O)NCC(=O)N[C@@H](C)C(=O)N1CCC[C@H]1C(=O)N1CCC[C@H]1C(=O)N1CCC[C@H]1C(=O)N[C@@H](CO)C(N)=O` [Example 44]?
A: Ki [1]: > 966 nM; EC50 (hGIPR; [2]): 1.68 nM; Emax (hGIPR; [5]): 87%; Emax (hGIPR; [6]): 92.2 ± 6.17%; EC50 (hGCGR; [2]): > 9950 nM; EC50 (hGCGR; [3]): > 9950 nM; EC50 (hGLP-1R; [2]): 125 nM; Emax (hGLP-1R; [4]): 94.5%; Emax (hGLP-1R; [7]): 90.9 ± 10.4%

Q: How did the Ki [1] turn out when `CC[C@H](C)[C@H](NC(=O)[C@H](CC(C)C)NC(=O)[C@](C)(Cc1ccc(O)cc1)NC(=O)[C@@H](CCC(=O)O)NC(=O)[C@@H](NC(=O)[C@H](Cc1ccccc1)NC(=O)[C@H](CCC(=O)O)NC(=O)C(C)(C)NC(=O)[C@H](CCC(N)=O)NC(=O)[C@H](C)NC(=O)[C@H](CCCCNC(=O)COCCOCCNC(=O)COCCOCCNC(=O)CC[C@H](NC(=O)CCCCCCCCCCC(=O)O)C(=O)O)NC(=O)[C@H](CCCN)NC(=O)[C@H](CC(=O)O)NC(=O)[C@H](CC(C)C)NC(=O)[C@](C)(CC(C)C)NC(=O)[C@@H](NC(=O)[C@H](CO)NC(=O)[C@H](Cc1ccncc1)NC(=O)[C@H](CC(=O)O)NC(=O)[C@H](CO)NC(=O)[C@@H](NC(=O)[C@](C)(Cc1ccccc1F)NC(=O)[C@@H](NC(=O)CNC(=O)[C@H](CCC(=O)O)NC(=O)C(C)(C)NC(=O)[C@@H](N)Cc1ccc(O)cc1)[C@@H](C)O)[C@@H](C)O)[C@@H](C)CC)[C@@H](C)CC)C(=O)N[C@@H](CCC(=O)O)C(=O)NCC(=O)NCC(=O)N[C@@H](CCCCNC(=O)COCCOCCNC(=O)COCCOCCNC(=O)CC[C@H](NC(=O)CCCCCCCCCCC(=O)O)C(=O)O)C(=O)N[C@@H](CO)C(=O)N[C@@H](CO)C(=O)NCC(=O)N[C@@H](C)C(=O)N1CCC[C@H]1C(=O)N1CCC[C@H]1C(=O)N1CCC[C@H]1C(=O)N[C@@H](CO)C(N)=O` [Example 6] was run?
A: > 969 nM

Q: What about the EC50 (hGIPR; [2]) of the same compound?
A: 0.0823 nM

Q: What about the Emax (hGIPR; [5]) of the same compound?
A: 89.4 ± 1.74%

Q: And the EC50 (hGCGR; [2])?
A: > 9950 nM

Q: What about the EC50 (hGCGR; [3]) of the same compound?
A: > 9950 nM

Q: And the EC50 (hGLP-1R; [2])?
A: 4.19 nM
